Measurements published in US20160238617A1, “[…] AND METHODS […] TO INNER EAR DISORDERS” (THE UNIVERSITY OF CONNECTICUT, priority 2015, published 2016).

Experiments:
prestin [1] = experiment: serum prestin concentration in mice treated with cisplatin; type: in vivo; settings: same time course up to two weeks after exposure
Method: Although the hearing threshold measured by ABR was unaffected, prestin levels continued to change after exposure to cisplatin.
The ototoxin drug cisplatin (a commonly used chemotherapeutic agent) was administered and then functional assessment of hearing and measurement of prestin were carried out at several intervals up to two weeks after exposure. Hearing was assessed using a standard testing protocol called click-evoked auditory brainstem response (ABR) (FIG. 13).

prestin [2] = experiment: serum prestin level in cisplatin-treated rats; type: in vivo; settings: 72 hours after treatment, compared to controls
Description: Rats are more vulnerable to ototoxic damage than mice.

## N.N.[Cl][Pt][Cl] [cisplatin]
Prestin [1]
  serum concentrations of prestin: increasing
Prestin [2]
  serum prestin level: elevated
